Reference: article PMC2662379 (Biochemistry, 2008)

What was measured:
[1] = target: alkaline phosphatase (AP) (Escherichia coli, UniProt P00634, R188S); test: steady-state hydrolysis kinetics; format: biochemical
[2] = target: NPP (Xanthomonas axonopodis nucleotide phosphodiesterase/pyrophosphatase) (Xanthomonas citri, UniProt A0A0U5FM15); test: inhibition of MepNPP hydrolysis, absorbance of 4-nitrophenolate at […] nm; format: biochemical

Chain of alkaline phosphatase (AP) (P00634 23-471 R188S): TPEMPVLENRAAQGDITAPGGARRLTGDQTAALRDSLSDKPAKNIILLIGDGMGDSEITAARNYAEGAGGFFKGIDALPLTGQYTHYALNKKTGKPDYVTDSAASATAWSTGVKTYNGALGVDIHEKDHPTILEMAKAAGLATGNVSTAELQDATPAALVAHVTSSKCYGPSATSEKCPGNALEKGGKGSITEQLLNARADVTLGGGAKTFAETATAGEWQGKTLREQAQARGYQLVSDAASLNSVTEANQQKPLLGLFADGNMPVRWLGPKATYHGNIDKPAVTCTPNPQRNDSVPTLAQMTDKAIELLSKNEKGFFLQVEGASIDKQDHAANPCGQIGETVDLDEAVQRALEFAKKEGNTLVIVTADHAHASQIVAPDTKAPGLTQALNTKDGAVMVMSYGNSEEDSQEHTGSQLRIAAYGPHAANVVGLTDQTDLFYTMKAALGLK

| SMILES | kcat/KM [1] | Ki [2] |
| --- | --- | --- |
| COP(O)(=S)Oc1ccc([N+](=O)[O-])cc1 (racemic) [MepNPPS, methyl p-nitrophenyl phosphorothioate] | 0.0011 M⁻¹ s⁻¹ |  |
| Nc1ncnc2c1ncn2[C@@H]1O[C@H](COP(=O)(O)O)[C@@H](O)[C@H]1O [AMP, adenosine monophosphate] |  | 318 ± 24 µM |
